Test results: patent EP0449955B1, “SYNTHETIC HIV-LIKE PEPTIDES, THEIR COMPOSITIONS AND USES” (CLARITY TECHNOLOGIES INCORPORATED, priority 1988, dated 1996)
Entries after “also recorded” stand apart in the source; their conditions may differ.

What was measured:
antibodies to HIV-1 [1] = experiment: Rapid test with peptide-BSA-colloidal gold conjugate; format: binding, human
Procedure: (§1) A test device for performing rapid tests in less than 15 minutes was prepared as illustrated in Figures 14 and 15. Referring to Figures 14 and 15, the device comprises a plastic slide 10 (approximately 1 inch wide by 3/16 inch thick by 3 1/4 inches long) having a plurality of funnel-like wells 12, each having a capacity of approximately 200 microliters, an upper inflow tract rim 14 diameter of approximately 9 mm and a lower outflow tract 16 diameter of approximately 2 mm. The undersurface of the outflow tract 16 is designed so as to provide a smooth even contact with a membrane filter 18 placed next to it in the apparatus. The membrane filter separates reactants passing through it by size, retaining those particles above a predetermined size, such as above 0.22 µm, or above 0.45 µm in size (depending upon the specific filter chosen), though other filters placed into the apparatus might separate by binding or affinity (i.e. nitrocellulose, glass). […]
An 8 ml quantity of peptide IWGCSGKLICTTAVPGC (A280nm∼=0.50) conjugated via its C-terminus and SMCC to BSA was dialyzed overnight against 2L of DI water at 4°C. […] The A₅₈₀ of each well was determined and the lowest values, indicating best protection, were at pH6.1>pH6.0>> other pH's. Using larger amounts of gold sol at pH6.1 the minimal amount of protective protein was determined to be 70 microliters of the dialyzed peptide-BSA (A₂₈₀ = 0.45). […]

antibodies to HIV-1 [2] = experiment: EIA of HIV-1 gp41 peptide-protein conjugates against serum pools; format: binding, human; conditions: peptide conjugated via C-terminus to BSA (SMCC), coated at 10 micrograms peptide/ml; 1:101 dilution of HIV+ serum pool; Figure 1
Procedure: (§2) The free peptides or peptide-protein conjugates of Figures 1-13 were initially screened for immunoreactivity by coating each well of polystyrene microtiter EIA plates (Costar, Cambridge, Massachusetts, U.S.A.) with 0.2 ml amounts of concentrations of 5-50 micrograms/ml peptide in Tris buffer, 10 mM, pH 8.0, at 4°C overnight. Peptides or peptide-protein conjugates showing immunoreactivity by EIA were then further diluted for coating to determine the minimal concentrations required that allowed maximal immunoreactivity with antibodies to HIV, and minimal nonspecific reactivity with normal sera. The EIA tests were performed as follows: The coating solution was removed from each well and the wells were blocked at 37°C for 30 minutes with a solution of 50 mM phosphate, 100 mM NaCl, pH 7.4, 1% BSA, 0.5% gelatin. The wells were then aspirated dry with a microtiter plate washer and washed 3 times with a solution of 50 mM phosphate, 100 mM NaCl, .05% Tween 20, (trademark) pH 7.4 (PBST). A 1:101 dilution (in PBST with 1% BSA, 1% NRS) of the primate serum to be tested was then added as 0.2 ml to each washed well and the plates were incubated at 37°C for 30 minutes. The plates were then washed x 3 with PBST, and 0.2 ml amounts of a 1:2000 dilution of goat anti-human (GAH) peroxidase enzyme conjugate (Organon Teknika, Cappel, Melvern, Pennsylvania, U.S.A.) that recognized human IgG, IgA, and IgM were added to each well, and the plates were incubated for 30 minutes at 37°C. The plates were then washed x 3 with PBST and incubated with 0.2 ml/well substrate consisting of 0,1M citric acid pH 5.2, 0.1 mg/ml o-phenylene diamine, 0.01% H₂O₂, at room temperature in the dark for 10 minutes. Reactions were stopped with 50 microliters of 4N H₂SO₄, and the color development was quantitated in a Multiscan plate reader at A₄₉₂. In each series of experiments positive and negative controls were included, and all tests were done in duplicate or quadruplicate. Most peptides and peptide conjugates were initially screened against a 1:101 dilution of pools of HIV positive or HIV negative sera, and the same serum pool was used to allow quantitative comparison of immunoreactivity of different free peptides or peptide-protein conjugates.
The peptides in Figures 1 and 5 were synthesized as described in Example 1 and conjugated to KLH or BSA as described in Example 2. These peptide-protein conjugates were coated to polystyrene microtiter plates all at a concentration 10 micrograms peptide/ml and evaluated for immunoreactivity as described in Example 3, using a 1:101 dilution of a pool of sera (HIV+/SIV+, respectively) containing antibodies to HIV-1 (Figure 1) or to HIV-2 (Figure 5), as well as pooled serum (HIV-/SIV-, respectively) containing no antibodies to HIV-1 or HIV-2. […] Since sera from patients infected with HIV-2 are relatively unavailable in the United States, the immunoreactivity of HIV-2 synthetic peptides was assessed using serum from macaques infected with SIV, obtained from the University of Washington Primate Center, Seattle, Washington, U.S.A. The AA sequence of SIV is nearly identical to HIV-2 in the region of the peptides synthesized (see Myers et al., Human Retroviruses and AIDS, 1988. A compilation of nucleic acid and amino acid sequences. Los Alamos National Laboratory, Los Alamos, New Mexico, 87545, USA).

antibodies to HIV-1 [3] = experiment: EIA of peptide-carrier conjugates with individual human sera; format: binding; conditions: BSA-SMCC conjugate; for immunoreactivity with positive sera: 98 sera containing antibodies to HIV-1, Figures 10B, 10C
Procedure: as §2
Figure 10A illustrates the immunoreactivity of synthetic natural peptides 2S06 and 2S09 (Figure 1) when conjugated via their C-terminal GC spacer to KLH using the heterobifunctional linker MBS. […] However, the immunoreactivity of many of the positives was low (A₄₉₂ less than 1.0), and some of the negative samples had A₄₉₂ values slightly above 0.20, resulting in minimal discrimination between negatives and positives. This poor discrimination led to a search for an improved carrier protein and/or linker.
Figure 10B illustrates the reactivity of synthetic natural peptide IWGCSGKLICTTAVPGC (2S09) when conjugated through its C-terminus to BSA via the heterobifunctional linker SMCC. […] Improvement in assay performance as compared with results of Example 5A is noted with respect to negative samples having lower A₄₉₂ values, and most positive samples having higher A₄₉₂ values. […] Because of the possibility that some of the low responsiveness might be due to antigenic differences of genetic variants in the region of this epitope, as reported for HIV isolates from Zaire (Gnann et al., Science 237:1346-1349, 1987), the natural sequence variant peptide 5S67 (Figure 3) was synthesized, chemically linked to BSA with SMCC, and tested against the same sera, plus one additional negative serum sample (Figure 10C). […] This instigated a search for unnatural sequence variants of peptide 2S09 that would retain high immunoreactivity with most sera that contained antibodies to HIV-1, and yet retain low reactivity with sera devoid of antibodies to HIV. […]

[4] = EIA of 4S36 as free peptide or BSA conjugate on 3 polystyrene microtiter plates; format: binding, human; conditions: BSA-peptide conjugate, plastic type 1; Figure 9
Source text: Antigenicity of each unnatural peptide is indicated by its ability as a free peptide to inhibit binding of HIV-1 antibodies to a BSA conjugate of peptide 2S09. […] Antigenicity of each peptide is indicated by its ability as a free peptide to inhibit binding of HIV-1 antibodies to a BSA conjugate of either 2S09 or peptide 5S67, a natural sequence variant reported in HIV-1 isolates from Zaire (Gnann et al., Science 237:1346-1349, 1987; and Alizon et al., Cell 46:36, 1986). […] Antigenicity of each peptide is indicated by its ability as a free peptide to inhibit binding of SIV/HIV-2 antibodies to a BSA conjugate of peptide 2S27. […] AA variants of peptide 2S27 are highlighted. […] Different groups of peptides were initially conjugated to BSA as indicated and the conjugates of each pool were first tested. […] All peptides were utilized C-terminally conjugated to BSA. […]
The free peptides or peptide-protein conjugates of Figures 1-13 were initially screened for immunoreactivity by coating each well of polystyrene microtiter EIA plates (Costar, Cambridge, Massachusetts, U.S.A.) with 0.2 ml amounts of concentrations of 5-50 micrograms/ml peptide in Tris buffer, 10 mM, pH 8.0, at 4°C overnight. […] Reactions were stopped with 50 microliters of 4N H₂SO₄, and the color development was quantitated in a Multiscan plate reader at A₄₉₂. […]

antibodies to HIV-1 [5] = experiment: Rapid EIA with latex-immobilized peptide reagents, HIV-1; format: binding, human; conditions: passive adsorption
Procedure: as §1
The mixture was shaken gently a room temperature for 1 hour, and then washed 3 times by centrifugation at 9,000 x g for 10 minutes, removal of supernate, and resuspension of the pellet in a 12-14 ml volume of deionized water, pH 4.5. […] It was determined that this stock solution of latex coated with peptide-BSA conjugate could be diluted 1:10-1:30 with latex diluent buffer for use in the rapid EIA described below. […]

Sequence | result with positive serum samples (red-purple dots) (antibodies to HIV-1 [1]; 20 sera containing antibodies to HIV-1, diluted 1:100) | result with negative sera (antibodies to HIV-1 [1]; 20 sera without antibodies to HIV-1) | immunoreactivity with HIV-1 antibodies (antibodies to HIV-1 [2]) | immunoreactivity with positive sera (antibodies to HIV-1 [3]; 11) | positive/negative ratios [4] | performance of free peptide passively adsorbed to latex (antibodies to HIV-1 [5]) | reactivity with sera that did not contain antibodies to HIV-1 (antibodies to HIV-1 [3]; 85-87 negative sera, Figures 10C, 11) | A492 values of positive samples (none less than) (antibodies to HIV-1 [3]; 98 positive samples, Figure 11)
IWGCSGKLICTTAVPGC [2S09] | 19 of the 20 | only the white color of the underlying membrane remained | maximally immunoreactive; also recorded: higher reactivity; also recorded: Significant immunoreactivity; also recorded: slightly superior immunoreactivity | very low immunoreactivity | – | – | – | –
VWGCSGKLICTTAVPGC [4S36] | – | – | – | striking increase in immunoreactivity of the low positives | ≥ 20 | produced an immunoreactive reagent | remained acceptably low | ≥ 1.0
